Test results taken from patent publication US20140073639A1 (priority 2012, published 2014).
In brackets after ≈: the same amount, converted by molar mass. Several values for one entry are separate records, joined by “and”; a condition that tells them apart may be missing. Equal entries are not always repeated. Where two headings read alike, the source gives them in different places.

Assays:
B. Anthracis = test: microbe, parasite or virus in culture; assay type: cell-based; settings: for inhibition at 3 µM / inhibition at 10 µM / inhibition at 30 µM: Bacillus anthracis; for inhibition at 3 µM: read-out: B. Anthracis 3 μM (growth inhibition); for inhibition at 10 µM: read-out: B. Anthracis 10 μM (growth inhibition); for inhibition at 30 µM: read-out: B. Anthracis 30 μM (growth inhibition)
S. MRSA = test: microbe, parasite or virus in culture; assay type: cell-based; settings: for inhibition at 3 µM / inhibition at 10 µM / inhibition at 30 µM: Staphylococcus aureus, MRSA; for inhibition at 3 µM: read-out: S. MRSA 3 μM (growth inhibition); for inhibition at 10 µM: read-out: S. MRSA 10 μM (growth inhibition); for inhibition at 30 µM: read-out: S. MRSA 30 μM (growth inhibition)
[1] = assay type: cell-based
S. aureus RN4220 [2] = test: microbe, parasite or virus in culture; assay type: cell-based; settings: Staphylococcus aureus, 37° C., 24 hours
S. aureus strain RN4220 = assay type: cell-based, Staphylococcus aureus
[3] = tested on: Gram-positive organisms that also encode 2-epimerases; assay type: cell-based
S. aureus RN4220 [4] = assay type: cell-based
B. anthracis Sterne = assay type: in vivo, C57BL/6 mice
B. anthracis ΔSterne = assay type: cell-based

| SMILES | inhibition at 3 µM (B. Anthracis; 3 μM) | inhibition at 10 µM (B. Anthracis; 10 μM) | inhibition at 30 µM (B. Anthracis; 30 μM) | inhibition at 3 µM (S. MRSA; 3 μM) | inhibition at 10 µM (S. MRSA; 10 μM) | inhibition at 30 µM (S. MRSA; 30 μM) | MIC, 25% Serum [1] | MIC, No Serum [1] | further results |
| --- | --- | --- | --- | --- | --- | --- | --- | --- | --- |
| O=C(O)[C@H](Cc1ccccc1)N1C(=O)/C(=C\c2ccc(-c3ccc(Cl)c(Cl)c3)o2)NC1=S [Cmpd 48] | -0.39% | 108% | 107% | -16.1% | 80.6% | 104% | 250 µM (≈ 122 µg/mL) | 7.8 µM (≈ 3.8 µg/mL) | – |
| COc1ccc(-c2ccc(/C=C3/NC(=S)N([C@@H](Cc4ccccc4)C(=O)O)C3=O)o2)cc1Cl [Cmpd 52] | -5.68% | 27.3% | 95.5% | -7.99% | -11.7% | 82.2% | >250 µM | 62.5 µM (≈ 30.2 µg/mL) | – |
| O=C(O)[C@H](Cc1ccccc1)N1C(=O)/C(=C\c2ccc(-c3cc(C(F)(F)F)ccc3Cl)o2)NC1=S [Cmpd 53] | 88.2% | 95.5% | 92.5% | -4.72% | 92.3% | 92.9% | >250 µM | 15.6 µM (≈ 8.13 µg/mL) | – |
| NC(=O)C(Cc1ccccc1)N1C(=O)/C(=C\c2ccc(-c3ccc(Cl)c(Cl)c3)o2)NC1=S (stereo not drawn) [Cmpd 54] | 20.6% | 94.8% | 93% | 2.03% | 30.1% | 57.5% | >250 µM | >250 µM | – |
| CCOC(=O)C(Cc1ccccc1)N1C(=O)/C(=C\c2ccc(-c3ccc(Cl)c(Cl)c3)o2)NC1=S (stereo not drawn) [Cmpd 55] | – | -50.8% | -6.41% | – | 0.57% | -2.92% | >250 µM | >250 µM | – |
| CS(=O)(=O)NC(=O)C(Cc1ccccc1)N1C(=O)/C(=C\c2ccc(-c3ccc(Cl)c(Cl)c3)o2)NC1=S (stereo not drawn) [Cmpd 57] | 45.2% | 96.4% | 90.2% | 3.18% | 30.9% | 58% | >250 µM | 15.6 µM (≈ 8.81 µg/mL) | – |
| O=C(NS(=O)(=O)C(F)(F)F)C(Cc1ccccc1)N1C(=O)/C(=C\c2ccc(-c3ccc(Cl)c(Cl)c3)o2)NC1=S (stereo not drawn) [Cmpd 58] | 69.4% | 98.7% | 97.4% | 0.23% | 81.7% | 94.5% | >250 µM | 7.8 µM (≈ 4.82 µg/mL) | – |
| CCC(C(=O)NS(C)(=O)=O)N1C(=O)/C(=C\c2ccc(-c3ccc(Cl)c(Cl)c3)o2)NC1=S (stereo not drawn) [Cmpd 59] | 6.4% | 6.23% | 19.6% | 1.71% | 2.56% | 0.06% | >250 µM | 125 µM (≈ 62.8 µg/mL) | – |
| O=C(O)C(Cc1ccccc1)N1C(=O)/C(=C\c2ccc(-c3ccccc3)o2)NC1=S (stereo not drawn) [Cmpd 60] | 2.29% | 11.6% | 18% | -2.55% | -5.71% | -8.8% | >250 µM | 125 µM (≈ 52.3 µg/mL) | – |
| Cc1oc(=O)oc1COC(=O)C(Cc1ccccc1)N1C(=O)/C(=C\c2ccc(-c3ccc(Cl)c(Cl)c3)o2)NC1=S (stereo not drawn) [Cmpd 64] | -0.01% | 0.22% | -1.34% | 0.71% | -1.48% | -3.34% | >250 µM | >250 µM | – |
| O=C([O-])C(Cc1ccccc1)N1C(=O)/C(=C\c2ccc(-c3ccc(Cl)c(Cl)c3)o2)NC1=S.[Na+] (stereo not drawn) [Cmpd 65] | – | – | – | – | – | – | >250 µM | 7.8 µM | B. Anthracis 3 μM (growth inhibition) (B. Anthracis; 3 μM): 108.67; B. Anthracis 10 μM (growth inhibition) (B. Anthracis; 10 μM): 107.86; B. Anthracis 30 μM (growth inhibition) (B. Anthracis; 30 μM): 104.01; S. MRSA 3 μM (growth inhibition) (S. MRSA; 3 μM): 0.9; S. MRSA 10 μM (growth inhibition) (S. MRSA; 10 μM): 104.72; S. MRSA 30 μM (growth inhibition) (S. MRSA; 30 μM): 105.68 |
| O=C([O-])C(Cc1ccccc1)N1C(=O)/C(=C\c2ccc(-c3cccc(Cl)c3)o2)NC1=S.[Na+] (stereo not drawn) [Cmpd 67] | 6.01% | 4.51% | 87.6% | 0.37% | -4.15% | -7.41% | >250 µM | 250 µM | – |
| N#CNC(=O)C(Cc1ccccc1)N1C(=O)/C(=C\c2ccc(-c3cccc(Cl)c3)o2)NC1=S (stereo not drawn) [Cmpd 68] | -1.9% | 6.31% | 12.5% | -0.24% | -1.1% | -0.93% | >250 µM | 125 µM (≈ 59.6 µg/mL) | – |
| N#CNC(=O)C(Cc1ccccc1)N1C(=O)/C(=C\c2ccc(-c3ccc(Cl)c(Cl)c3)o2)NC1=S (stereo not drawn) [Cmpd 69] | 0.13% | 100% | 99.2% | 0.03% | 0.65% | 97.5% | 250 µM (≈ 128 µg/mL) | 15.6 µM (≈ 7.98 µg/mL) | – |
| O=C(O)C(Cc1ccccc1)N1C(=O)/C(=C\c2ccc(-c3ccnc(Cl)c3)o2)NC1=S (stereo not drawn) [Cmpd 70] | 2.54% | 16% | 4.62% | -0.84% | -1.26% | -1.4% | >250 µM | 125 µM (≈ 56.7 µg/mL) | – |
| O=C(O)C(Cc1ccccc1)N1C(=O)/C(=C\c2ccc(Cl)c(Cl)c2)NC1=S (stereo not drawn) [Cmpd 71] | 0.05% | -8.93% | -17.3% | -0.86% | -2.74% | -5.12% | >250 µM | >250 µM | – |
| O=C(O)C(Cc1ccccc1)N1C(=O)/C(=C\c2ccc(-c3ncc(Cl)cc3Cl)o2)NC1=S (stereo not drawn) [Cmpd 72] | -13.5% | 9.07% | 98.1% | -2.17% | -5.02% | 53% | 250 µM (≈ 122 µg/mL) | 62.5 µM (≈ 30.5 µg/mL) | – |
| O=C(O)C(Cc1ccccc1)N1C(=O)/C(=C\c2ccc(-c3ccc(Br)cc3)s2)NC1=S (stereo not drawn) [Epimerox, 2-{4-[5-(4-bromophenyl)-thiophen-2-ylmethylene]-5-oxo-2-thioxo-imidazolidin-1-yl}-3-phenyl-propionic acid] | – | – | – | – | – | – | – | – | MIC (S. aureus RN4220 [2]): 8 µg/mL and 16 µM; Epimerox concentrations at which strain did not grow (S. aureus strain RN4220): above 7.5 μm1^−1; growth of S. aureus (S. aureus strain RN4220): grew very poorly; growth of many other Gram-positive organisms [3]: inhibited the growth; MIC plateau, serial passage (S. aureus RN4220 [4]): 12 μg m1^−1; starting MIC, serial passage (S. aureus RN4220 [4]): 5.0 μg m1^−1; B. anthracis in the major organs (B. anthracis Sterne; after 2 days): not observed; B. anthracis in the major organs (B. anthracis Sterne; at 20 hours): detected; animals survived 14 days (B. anthracis Sterne; mouse, in vivo): 100% and 66%; concentrations that effectively blocked growth (B. anthracis ΔSterne): above 3 μM |
